Measurements taken from ChEMBL document CHEMBL1133301, “Beta-keto-ester chemistry and ketolides. Synthesis and antibacterial activity of 2-halogeno, 2-methyl and 2,3 enol-ether ketolides” (2000).
Converted amounts (≈) assume the structure as drawn.

Columns and labels:
Assay type in all cases: functional
Staphylococcus aureus [1] = experiment: The compound has been evaluated for the antibacterial activity against Staphylococcus aureus EryRi 011GO25i strains
Streptococcus pneumoniae [2] = experiment: The compound has been evaluated for the antibacterial activity against Streptococcus pneumoniae EryRc 030PW23c strains
Streptococcus pneumoniae [3] = experiment: The compound has been evaluated for the antibacterial activity against Streptococcus pneumoniae Ery Ri 030SJ 5i strains
Streptococcus pneumoniae [4] = experiment: The compound has been evaluated for the antibacterial activity against Streptococcus pneumoniae EryRc 030SJ1 strains
Streptococcus pneumoniae [5] = experiment: The compound has been evaluated for the antibacterial activity against Streptococcus pneumoniae EryS 032UC1 strains
Staphylococcus aureus [6] = experiment: The compound has been evaluated for the antibacterial activity against Staphylococcus aureus EryRc 011CB20 strains
Staphylococcus aureus [7] = experiment: The compound has been evaluated for the antibacterial activity against Staphylococcus aureus EryS 011UC4 strains
Streptococcus pyogenes = experiment: The compound has been evaluated for the antibacterial activity against Streptococcus pyogenes EryS 02A1UC1.
Haemophilus influenzae = experiment: The compound has been evaluated for the antibacterial activity against Haemophilus influenzae 351HT3 (beta-lactamase +)
Mus musculus [8] = experiment: The compound has been evaluated for the in vivo efficacy that protect 50% of mice from lethal infection by Streptococcus Pneumoniae EryRi 030SJ5i strains after oral administration
Mus musculus [9] = experiment: The compound has been evaluated for the in vivo efficacy that protect 50% of mice from lethal infection by Streptococcus Pneumonia EryS 032UC1 strain after oral administration
Mus musculus [10] = experiment: The compound has been evaluated for the in vivo efficacy that protect 50%of mice from lethal infection by Haemophilus influenzae AmpR 351RD7 after oral administration
Mus musculus [11] = experiment: The compound has been evaluated for the in vivo efficacy that protect 50% of mice from lethal infection by Staphylococcus aureus EryS 011HT17 strains after oral administration
Mus musculus [12] = experiment: The compound has been evaluated for the in vivo efficacy that protect 50% of mice from lethal infection by Streptococcus Pneumoniae EryRc 030MV2 strains after oral administration
Mus musculus [13] = experiment: The compound has been evaluated for the in vivo efficacy that protect 50% of mice from lethal infection of Streptococcus Pneumoniae EryRc 030MV2 strains after oral administration
Mus musculus [14] = experiment: The compound has been evaluated for the in vivo efficacy that protect 50% of mice from lethal infection of Staphylococcus aureus EryS 011HT17 strains after oral administration
Mus musculus [15] = experiment: The compound has been evaluated for the in vivo efficacy that protect 50%of mice from lethal infection of Haemophilus influenzae AmpR 351RD7 after oral administration
Mus musculus [16] = experiment: The compound has been evaluated for the in vivo efficacy that protect 50% of mice from lethal infection of Streptococcus Pneumoniae EryRi 030SJ5i strains after oral administration
Mus musculus [17] = experiment: The compound has been evaluated for the in vivo efficacy that protect 50% of mice from lethal infection of Streptococcus Pneumonia EryS 032UC1 strain after oral administration

Row | Compound | MIC (Staphylococcus aureus [1]) [µg/mL] | MIC (Streptococcus pneumoniae [2]) [µg/mL] | MIC (Streptococcus pneumoniae [3]) [µg/mL] | MIC (Streptococcus pneumoniae [4]) [µg/mL] | MIC (Streptococcus pneumoniae [5]) [µg/mL] | MIC (Staphylococcus aureus [6]) [µg/mL] | MIC (Staphylococcus aureus [7]) [µg/mL] | MIC (Streptococcus pyogenes) [µg/mL] | MIC (Haemophilus influenzae) [µg/mL] | ED50 (Mus musculus [8]) [mg/kg] | ED50 (Mus musculus [9]) [mg/kg] | ED50 (Mus musculus [10]) [mg/kg] | ED50 (Mus musculus [11]) [mg/kg] | ED50 (Mus musculus [12]) [mg/kg] | ED50 (Mus musculus [13]) [mg/kg] | ED50 (Mus musculus [14]) [mg/kg] | ED50 (Mus musculus [15]) [mg/kg] | ED50 (Mus musculus [16]) [mg/kg] | ED50 (Mus musculus [17]) [mg/kg]
1 | CC[C@H]1OC(=O)[C@@](C)(F)C(=O)[C@H](C)[C@@H](O[C@@H]2O[C@H](C)C[C@H](N(C)C)[C@H]2O)[C@](C)(OC)C[C@@H](C)C(=O)[C@H](C)[C@H]2N(CCCCn3cnc(-c4cccnc4)c3)C(=O)O[C@]12C | 0.08 (≈ 0.0964 µM) | < 0.02 | < 0.02 | < 0.02 | < 0.02 | > 40 | 0.02 (≈ 0.0241 µM) | < 0.02 | 1.2 (≈ 1.45 µM) | 4.3 | 1.5 | 56 | 9 | 2 |  |  |  |  | 
2 | CC[C@H]1OC(=O)/C(C)=C(/OCOCCCc2ccccc2)[C@H](C)[C@@H](O[C@@H]2O[C@H](C)C[C@H](N(C)C)[C@H]2O)[C@](C)(OC)C[C@@H](C)C(=O)[C@H](C)[C@H]2N(CCCCn3cnc(-c4cccnc4)c3)C(=O)O[C@]12C | > 40 | 20 (≈ 20.8 µM) | 20 (≈ 20.8 µM) | 20 (≈ 20.8 µM) | 0.8 (≈ 0.833 µM) | > 40 | 5 (≈ 5.21 µM) | 0.15 (≈ 0.156 µM) | > 40 |  |  |  |  |  |  |  |  |  | 
3 | CC[C@H]1OC(=O)[C@H](C)[C@@H](O[C@H]2C[C@@](C)(OC)[C@@H](O)[C@H](C)O2)[C@H](C)[C@@H](O[C@@H]2O[C@H](C)C[C@H](N(C)C)[C@H]2O)[C@](C)(O)C[C@@H](C)CN(C)[C@H](C)[C@@H](O)[C@]1(C)O [AZITHROMYCIN] | > 40 | > 40 | > 40 | > 40 | 0.15 (≈ 0.2 µM) | > 40 | 0.3 (≈ 0.401 µM) | 0.6 (≈ 0.801 µM) | 1.2 (≈ 1.6 µM) |  |  |  |  |  | > 50 | 72 | 94 | > 50 | 4.5
4 | CC[C@H]1OC(=O)[C@H](C)[C@@H](O[C@H]2C[C@@](C)(OC)[C@@H](O)[C@H](C)O2)[C@H](C)[C@@H](O[C@@H]2O[C@H](C)C[C@H](N(C)C)[C@H]2O)[C@](C)(OC)C[C@@H](C)C(=O)[C@H](C)[C@@H](O)[C@]1(C)O [CLARITHROMYCIN] | > 40 | > 40 | > 40 | > 40 | 0.04 (≈ 0.0535 µM) | > 40 | 0.3 (≈ 0.401 µM) | 0.008 (≈ 0.0107 µM) | 5 (≈ 6.68 µM) | > 50 | 2 | > 150 | 12 | > 50 |  |  |  |  | 
5 | CC[C@H]1OC(=O)[C@H](C)C(=O)[C@H](C)[C@@H](O[C@@H]2O[C@H](C)C[C@H](N(C)C)[C@H]2O)[C@](C)(OC)C[C@@H](C)C(=O)[C@H](C)[C@H]2N(CCCCn3cnc(-c4cccnc4)c3)C(=O)O[C@]12C [TELITHROMYCIN] | 0.08 (≈ 0.0985 µM) | 0.04 (≈ 0.0493 µM) | < 0.02 | < 0.02 | < 0.02 | > 40 | 0.04 (≈ 0.0493 µM) | < 0.02 | 1.2 (≈ 1.48 µM) |  |  |  |  |  |  |  |  |  | 

Further lines, with some results ahead:

Row | MIC (Staphylococcus aureus [1]) [µg/mL] | MIC (Streptococcus pneumoniae [2]) [µg/mL] | MIC (Streptococcus pneumoniae [3]) [µg/mL] | MIC (Streptococcus pneumoniae [4]) [µg/mL] | MIC (Streptococcus pneumoniae [5]) [µg/mL] | MIC (Staphylococcus aureus [6]) [µg/mL] | MIC (Staphylococcus aureus [7]) [µg/mL] | MIC (Streptococcus pyogenes) [µg/mL] | MIC (Haemophilus influenzae) [µg/mL] | Compound | ED50 (Mus musculus [8]) [mg/kg] | ED50 (Mus musculus [9]) [mg/kg] | ED50 (Mus musculus [10]) [mg/kg] | ED50 (Mus musculus [11]) [mg/kg] | ED50 (Mus musculus [12]) [mg/kg] | ED50 (Mus musculus [13]) [mg/kg] | ED50 (Mus musculus [14]) [mg/kg] | ED50 (Mus musculus [15]) [mg/kg] | ED50 (Mus musculus [16]) [mg/kg] | ED50 (Mus musculus [17]) [mg/kg]
6 | 20 (≈ 21.9 µM) | 2.5 (≈ 2.74 µM) | 5 (≈ 5.48 µM) | 10 (≈ 11 µM) | 0.15 (≈ 0.164 µM) | > 40 | 2.5 (≈ 2.74 µM) | 0.3 (≈ 0.329 µM) | 20 (≈ 21.9 µM) | CC[C@H]1OC(=O)/C(C)=C(/OCOCCN(C)C)[C@H](C)[C@@H](O[C@@H]2O[C@H](C)C[C@H](N(C)C)[C@H]2O)[C@](C)(OC)C[C@@H](C)C(=O)[C@H](C)[C@H]2N(CCCCn3cnc(-c4cccnc4)c3)C(=O)O[C@]12C |  |  |  |  |  |  |  |  |  | 
7 | 1.2 (≈ 1.45 µM) | 2.5 (≈ 3.03 µM) | 0.6 (≈ 0.726 µM) | 2.5 (≈ 3.03 µM) | 0.02 (≈ 0.0242 µM) | > 40 | 0.6 (≈ 0.726 µM) | 0.02 (≈ 0.0242 µM) | 2.5 (≈ 3.03 µM) | CC[C@H]1OC(=O)C(C)(C)C(=O)[C@H](C)[C@@H](O[C@@H]2O[C@H](C)C[C@H](N(C)C)[C@H]2O)[C@](C)(OC)C[C@@H](C)C(=O)[C@H](C)[C@H]2N(CCCCn3cnc(-c4cccnc4)c3)C(=O)O[C@]12C |  |  |  |  |  |  |  |  |  | 
8 | > 40 | 1.2 (≈ 1.42 µM) | 0.6 (≈ 0.709 µM) | 5 (≈ 5.91 µM) | 0.04 (≈ 0.0473 µM) | > 40 | 0.6 (≈ 0.709 µM) | 0.04 (≈ 0.0473 µM) | 2.5 (≈ 2.95 µM) | CC[C@H]1OC(=O)C(C)(Cl)C(=O)[C@H](C)[C@@H](O[C@@H]2O[C@H](C)C[C@H](N(C)C)[C@H]2O)[C@](C)(OC)C[C@@H](C)C(=O)[C@H](C)[C@H]2N(CCCCn3cnc(-c4cccnc4)c3)C(=O)O[C@]12C (stereo partly specified) |  |  |  |  |  |  |  |  |  | 
9 | 0.3 (≈ 0.377 µM) | 0.3 (≈ 0.377 µM) | 2.5 (≈ 3.14 µM) | 10 (≈ 12.6 µM) | 0.02 (≈ 0.0251 µM) | > 40 | 0.08 (≈ 0.101 µM) | 0.02 (≈ 0.0251 µM) | 2.5 (≈ 3.14 µM) | CC[C@H]1OC(=O)/C(C)=C\[C@H](C)[C@@H](O[C@@H]2O[C@H](C)C[C@H](N(C)C)[C@H]2O)[C@](C)(OC)C[C@@H](C)C(=O)[C@H](C)[C@H]2N(CCCCn3cnc(-c4cccnc4)c3)C(=O)O[C@]12C |  |  |  |  |  |  |  |  |  | 
